The results in this text go back to ChEMBL document CHEMBL1132069, “Syntheses of two trimannose analogs each containing C-mannosyl or 5-thio-C-mannosyl residue: their affinities to concanavalin A” (Bioorg Med Chem Lett, 1999).

This assay in a line: Dissociation constant for the binding of compound to concanavalin A (Con A) was determined by fluorescence anisotropy inhibition assay. In general terms: Polarisation of emitted light reports the rotation of a fluorescent probe.

One may read the Kd as the free concentration of one partner at which half of the binding sites on the other are occupied at equilibrium, for simple one-to-one binding. Consider `OC[C@@H]1O[C@H](CC[C@@H]2O[C@H](O)[C@H](O)[C@@H](O[C@H]3O[C@@H](CO)[C@@H](O)[C@H](O)[C@H]3O)[C@@H]2O)[C@H](O)[C@@H](O)[C@@H]1O`, for which binding was characterised by a dissociation constant (Kd) of 198 µM. The same measure for `OC[C@@H]1O[C@H](O[C@@H]2[C@@H](O)[C@@H](O)O[C@@H](CC[C@H]3S[C@@H](CO)[C@@H](O)[C@H](O)[C@H]3O)[C@H]2O)[C@H](O)[C@@H](O)[C@@H]1O`: 31 µM.
